Source: US20250154154A1 (Relay Binney Street, 2nd Floor, priority 2020, published 2025)
Where a name gives a salt, the structure may show the parent alone.

Legend:
[1] = target: SRC (Homo sapiens, UniProt P12931); test: SRC Biochemical Assay Protocol (microfluidic mobility shift assay, FLPeptide4 substrate)
In short: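 Recombinant SRC (0.26 nM) preincubated 30 min at RT with compound (0.0017–100 μM) and 1.5 μM FLPeptide4, then 50 μM ATP added; 90 min reaction in HEPES pH 7.4, 10 mM MgCl2, 1% DMSO, EDTA-quenched. Phosphopeptide quantified by microfluidic mobility shift; IC50 from 4-parameter logistic fit.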

[2] = tested on: RBE cells; test: Cell Viability Protocol (CellTiterGlo), RBE cells; type: cell-based; conditions: RBE or SNU-1079 cells, 72 or 120 hour, cell line and time not given
In short: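 RBE cells plated at 1200/well in RPMI 1640 with 10% FBS, incubated 24 h, then dosed with compound from DMSO stocks and incubated 72 or 120 h at 37° C. CellTiterGlo luminescence normalised to DMSO control; IC50 from 4-parameter fit.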

[3] = tested on: phospho-S6RP (Ser 235/236) in RBE cells; test: Cellular Proliferation Protocol (cellular phospho-S6RP HTRF), RBE cells; type: cell-based; conditions: 6 hours treatment, RBE or SNU-1079 cells, cell line not given
In short: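 RBE cells, 2000/well, seeded 24 h before 6 h compound treatment at 37° C. Lysates were probed with a Eu-cryptate/d2 HTRF antibody sandwich for phospho-S6RP (Ser 235/236), incubated overnight at room temperature. Signal normalised to DMSO control and IC50 fitted to a 4-parameter curve.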

Sequence of SRC (P12931 whole entry, species assumed): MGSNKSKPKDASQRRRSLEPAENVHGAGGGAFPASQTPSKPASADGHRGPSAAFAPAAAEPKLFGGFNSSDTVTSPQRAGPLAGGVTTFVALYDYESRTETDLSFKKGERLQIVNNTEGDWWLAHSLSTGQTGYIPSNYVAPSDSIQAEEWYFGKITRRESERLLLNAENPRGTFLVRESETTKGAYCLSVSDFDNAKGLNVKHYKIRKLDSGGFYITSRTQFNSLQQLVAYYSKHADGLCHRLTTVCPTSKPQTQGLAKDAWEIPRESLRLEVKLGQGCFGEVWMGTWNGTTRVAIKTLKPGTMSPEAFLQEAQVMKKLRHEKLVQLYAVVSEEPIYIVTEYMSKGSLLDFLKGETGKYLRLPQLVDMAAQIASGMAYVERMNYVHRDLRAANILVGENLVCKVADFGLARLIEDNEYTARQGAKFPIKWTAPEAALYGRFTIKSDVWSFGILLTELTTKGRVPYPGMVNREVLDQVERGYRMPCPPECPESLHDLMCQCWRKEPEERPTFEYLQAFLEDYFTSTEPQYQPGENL

Row | Compound | IC50 [1] | IC50 [2] | IC50 ([3]; 6 h) | IC50 [3]
1 | C=CC(=O)N1C[C@@H]2[C@@H](C#Cc3c(-c4ccc(Oc5cccc(C)n5)cc4OC)c4c(N)ncnc4n3CCOC)[C@@H]2C1 [II-276] | 10 to 1000 nM | 10 to 1000 nM | 10 to 1000 nM | –
2 | C=CC(=O)N1C[C@@H]2[C@@H](C#Cc3c(-c4ccc(Oc5cccc(C)n5)c(OC)c4)c4c(N)ncnc4n3CCCS(C)(=O)=O)[C@@H]2C1 [II-279] | 10 to 1000 nM | 10 to 1000 nM | 10 to 1000 nM | –
3 | C=CS(=O)(=O)N1CC[C@@H](N2CC(C#Cc3c(-c4ccc(Oc5ccccc5)cc4)c4c(N)ncnc4n3C)C2)[C@@H](O)C1 [II-280] | ≤ 10 nM | ≤ 10 nM | 10 to 1000 nM | –
4 | C=CC(=O)N1CC[C@H](N2CC(C#Cc3c(-c4ccc(F)c5c4OCO5)c4c(N)ncnc4n3C(C)C)C2)[C@H](F)C1 [II-286, 1-((3R,4S)-4-(3-((4-amino-5-(7-fluorobenzo[d][1,3]dioxol-4-yl)-7-isopropyl-7H-pyrrolo[2,3-d]pyrimidin-6-yl)ethynyl)azetidin-1-yl)-3-fluoropiperidin-1-yl)prop-2-en-1-one] | ≤ 10 nM | 10 to 1000 nM | ≤ 10 nM | –
5 | C=CC(=O)N1CCC(N2CC(C#Cc3c(-c4ccc(F)c5c4OCO5)c4c(N)ncnc4n3CC)C2)CC1 [II-290] | ≤ 10 nM | 10 to 1000 nM | 10 to 1000 nM | –
6 | CC(C)n1c(C#C[C@@H]2[C@H]3CN(C(=O)/C=C/CN(C)C)C[C@@H]23)c(-c2ccc(F)c3c2OCO3)c2c(N)ncnc21 [II-293] | ≤ 10 nM | ≤ 10 nM | ≤ 10 nM | –
7 | C=CC(=O)N1CCC(O)(C#Cc2c(-c3ccc(Oc4cccc(C)n4)c(OC)c3)c3c(N)ncnc3n2C)CC1 [II-304, formate] | 10 to 1000 nM | 10 to 1000 nM | 10 to 1000 nM | –
8 | C=CC(=O)N1CC[C@H](N2CC(C#Cc3c(-c4ccc(Oc5cccc(C)n5)c(OC)c4)c4c(N)ncnc4n3C)C2)[C@H](F)C1 [II-309] | 10 to 1000 nM | 10 to 1000 nM | 10 to 1000 nM | –
9 | C=CC(=O)N1CCC(N2CC(C#Cc3c(-c4ccc(Oc5ccccc5)cn4)c4c(N)ncnc4n3C)C2)CC1 [II-313] | 10 to 1000 nM | 10 to 1000 nM | – | 10 to 1000 nM
10 | C=CC(=O)N1CCC(N2CC(C#Cc3c(-c4ccc(Oc5ccccc5)c(Cl)n4)c4c(N)ncnc4n3C)C2)CC1 [II-314] | > 10000 nM | 10 to 1000 nM | – | 10 to 1000 nM
11 | C=CC(=O)N1CCC(N2CC(C#Cc3c(-c4ccc(Oc5ccccc5)c(OC)n4)c4c(N)ncnc4n3C)C2)CC1 [II-315] | 10 to 1000 nM | ≤ 10 nM | – | 10 to 1000 nM
12 | C=CC(=O)N1CC[C@@H](N2CC(C#Cc3c(-c4ccc(Oc5ccccc5)c(OC)n4)c4c(N)ncnc4n3C)C2)[C@@H](O)C1 [II-316] | 10 to 1000 nM | ≤ 10 nM | – | ≤ 10 nM
13 | C=CC(=O)N1CCC(N2CC(F)(C#Cc3c(-c4ccc(Oc5ccccc5)c(OC)n4)c4c(N)ncnc4n3C)C2)CC1 [II-317] | 10 to 1000 nM | ≤ 10 nM | – | 10 to 1000 nM
14 | C=CC(=O)N1CC[C@@H](N2CC(C#Cc3c(-c4ccc(Cl)c(OC)n4)c4c(N)ncnc4n3C)C2)[C@@H](O)C1 [II-318] | 10 to 1000 nM | 10 to 1000 nM | – | 10 to 1000 nM
15 | C=CC(=O)N1CCC(N2CC(C#Cc3c(-c4ccc(Cl)c(OC)n4)c4c(N)ncnc4n3C)C2)CC1CO (stereo not drawn) [II-319] | 10 to 1000 nM | 10 to 1000 nM | – | 10 to 1000 nM
16 | C=CC(=O)N1CC[C@@H](N2CC(C#Cc3c(-c4ccc(Cl)c(OC)n4)c4c(N)ncnc4n3C)C2)[C@@H](F)C1 [II-320] | 10 to 1000 nM | 10 to 1000 nM | – | 10 to 1000 nM
17 | C=CC(=O)N1CC[C@@H](N2CC(C#Cc3c(-c4ccc(Cl)cn4)c4c(N)ncnc4n3C)C2)[C@@H](O)C1 [II-321] | 10 to 1000 nM | 10 to 1000 nM | – | 10 to 1000 nM
18 | C=CS(=O)(=O)N1CCC(N2CC(C#Cc3c(-c4ccc(Oc5ccccc5)c(OC)n4)c4c(N)ncnc4n3C)C2)CC1 [II-322] | ≤ 10 nM | 10 to 1000 nM | – | 10 to 1000 nM
19 | C=CS(=O)(=O)N1CC[C@@H](N2CC(C#Cc3c(-c4ccc(Oc5ccccc5)c(OC)n4)c4c(N)ncnc4n3C)C2)[C@@H](O)C1 [II-323] | ≤ 10 nM | ≤ 10 nM | – | 10 to 1000 nM
20 | C=CC(=O)N1CCC(N2CC(C#Cc3c(-c4ccc(Cl)c(OC)n4)c4c(N)ncnc4n3C)C2)CC1 [II-324] | 10 to 1000 nM | 10 to 1000 nM | – | 10 to 1000 nM
21 | C=CC(=O)N1CCC(N2CC(C#Cc3c(-c4ccc(Cl)cn4)c4c(N)ncnc4n3C)C2)CC1 [II-325] | 10 to 1000 nM | 1000 to 10000 nM | – | 1000 to 10000 nM
22 | C=CC(=O)N1CCC(N2CC(C#Cc3c(-c4ccc(Cl)c(C)n4)c4c(N)ncnc4n3C(C)C)C2)CC1 [II-326] | 10 to 1000 nM | 10 to 1000 nM | – | 10 to 1000 nM
23 | C=CC(=O)N1CCC(N2CC(C#Cc3c(-c4ccc(Cl)c(OC)n4)c4c(N)ncnc4n3C(C)C)C2)CC1 [II-327] | ≤ 10 nM | 10 to 1000 nM | – | 10 to 1000 nM
24 | C=CC(=O)N1CC[C@H](N2CC(C#Cc3c(-c4ccc(Cl)c(C)n4)c4c(N)ncnc4n3C(C)C)C2)[C@H](F)C1 [II-328] | 10 to 1000 nM | 10 to 1000 nM | – | 10 to 1000 nM
25 | C=CC(=O)N1CCC(N2CC(C#Cc3c(-c4ccc(Oc5ccccc5)c(OC)n4)c4c(N)ncnc4n3C)C2)CC1CO (stereo not drawn) [II-329] | 10 to 1000 nM | 10 to 1000 nM | – | 10 to 1000 nM
26 | C=CC(=O)N1CC[C@@H](N2CC(C#Cc3c(-c4ccc(Oc5ccccc5)c(OC)n4)c4c(N)ncnc4n3C)C2)[C@@H](F)C1 [II-330] | ≤ 10 nM | ≤ 10 nM | – | ≤ 10 nM
27 | C=CC(=O)N1CCC(N2CC(F)(C#Cc3c(-c4ccc(Oc5ccccc5)cc4)c4c(N)ncnc4n3C)C2)C(O)C1 (stereo not drawn) [III-1] | 10 to 1000 nM | ≤ 10 nM | ≤ 10 nM | –
28 | CN(C)C/C=C/C(=O)N1C[C@@H]2[C@@H](C#Cc3c(-c4ccc(Oc5ccccc5)cc4)c4c(N)ncnc4n3C)[C@@H]2C1 [III-2] | 10 to 1000 nM | ≤ 10 nM | – | ≤ 10 nM
